Holding throughout (format): binding
Experiment [1] deals with T1, EcAII, type II L-asparaginase from Escherichia coli (Escherichia coli, UniProt P00805).
T1 construct: gene ansB; Met-(His)6-EcAII, N-terminal tag kept; secreted from E. coli triple asparaginase knockout
T1 sequence (P00805 23-348): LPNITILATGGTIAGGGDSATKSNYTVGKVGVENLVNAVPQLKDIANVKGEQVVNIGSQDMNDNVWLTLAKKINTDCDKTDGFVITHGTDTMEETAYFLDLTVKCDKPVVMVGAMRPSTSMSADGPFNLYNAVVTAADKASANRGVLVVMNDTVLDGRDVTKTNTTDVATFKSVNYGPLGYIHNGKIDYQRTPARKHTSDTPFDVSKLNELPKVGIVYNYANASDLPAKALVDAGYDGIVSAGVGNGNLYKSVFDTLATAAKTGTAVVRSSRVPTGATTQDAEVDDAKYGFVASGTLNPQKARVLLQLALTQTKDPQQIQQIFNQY
Kind of experiment: intact-protein LC/MS (electrospray). Conditions: pH 4.0, 200 mM citrate; no L-Asp; covalent (addition of citrate minus water).

In experiment [2] the target is T2, EcAII, type II L-asparaginase from Escherichia coli (Escherichia coli, UniProt P00805, D112T/K184T).
T2 construct: gene ansB; Met-(His)6-EcAII, N-terminal tag kept; secreted from E. coli triple asparaginase knockout
T2 sequence (P00805 23-348 D112T/K184T): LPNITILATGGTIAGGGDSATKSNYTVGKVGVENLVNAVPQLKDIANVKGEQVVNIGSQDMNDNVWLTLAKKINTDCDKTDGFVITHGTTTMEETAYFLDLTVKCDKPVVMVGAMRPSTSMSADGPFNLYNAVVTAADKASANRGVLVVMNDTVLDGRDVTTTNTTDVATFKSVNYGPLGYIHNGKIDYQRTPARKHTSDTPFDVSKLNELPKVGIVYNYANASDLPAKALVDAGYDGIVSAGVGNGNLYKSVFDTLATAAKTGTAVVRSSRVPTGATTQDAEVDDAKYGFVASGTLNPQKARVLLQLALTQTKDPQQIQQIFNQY
Kind of experiment: X-ray crystal structure. Conditions: pH 5.0 (also pH 5.6, 6nx7; pH 6.2, 6nx8), 0.17 M citrate, 10 mM L-Asn, 293 K; non-covalent, one of two active sites (protomer B); stabilised by His6-tag of symmetry mate, called an artifact.

Experiment [3] concerns the target T1, EcAII, type II L-asparaginase from Escherichia coli. The experiment is described as follows: X-ray crystal structure. Conditions: pH 7.0, 0.17 M ammonium citrate, 17% PEG3350, 100 K; non-covalent, all four active sites.
The target in experiment [4] is T3, EcAI (AnsA), type I L-asparaginase from E. coli (Escherichia coli, UniProt P0A962).
T3 construct: four protomers (two dimers) in the asymmetric unit
T3 sequence (P0A962 1-338): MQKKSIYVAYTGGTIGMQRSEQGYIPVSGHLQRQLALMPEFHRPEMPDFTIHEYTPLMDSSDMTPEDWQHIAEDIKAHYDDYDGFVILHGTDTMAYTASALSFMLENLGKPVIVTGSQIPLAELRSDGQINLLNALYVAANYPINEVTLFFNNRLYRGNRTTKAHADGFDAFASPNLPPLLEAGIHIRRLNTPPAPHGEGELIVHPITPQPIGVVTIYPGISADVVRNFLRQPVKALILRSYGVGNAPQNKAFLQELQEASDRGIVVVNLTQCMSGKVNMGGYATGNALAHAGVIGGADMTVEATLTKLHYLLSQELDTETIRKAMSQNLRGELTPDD
Kind of experiment: X-ray crystal structure, re-refined from deposited data (2p2n). The settings on record: pH about 4.0 (0.1 M citrate, 1 M NaCl); covalent, acyl-enzyme ester to Thr14 OG1 in active site; re-interpretation of ligand first modelled as L-Asp/L-Asn.

Where a name gives a salt, the structure may show the parent alone.

With `O=C(O)CC(O)(CC(=O)O)C(=O)O` [CIT, citrate], in experiment [1], the “% abundance of adduct (+174.0) at 200 mM citrate” value is given as 38.1%. In addition, the X-ray crystal structure entry is “maps indicated clearly the presence of a citrate anion in this site” in experiment [2] and “The shape of this peak could be unambiguously interpreted as a citrate anion” in experiment [3]. The “X-ray crystal structure, re-refined from deposited data (2p2n)” value in experiment [4] was “substitution by citrate anions covalently linked to the side chain of Thr14”.
